Measurements: publication PMC6891756, “Synthesis and Biological Evaluation of Novel Aminochalcones as Potential Anticancer and Antimicrobial Agents” (Molecules, 2019)
≈ marks a conversion by molar mass, not a printed value.

Key:
Trichophyton rubrum = tested on: Trichophyton rubrum; set-up: method as in doi:10.1007/s10600-018-2281-7; conditions: cited from earlier work
[1] = tested on: canine malignant histiocytic cell line (DH82); set-up: method as in PMID 28738308; conditions: read-out: IC50 DH82 proliferation (literature); cited from earlier work
HT-29 = experiment: SRB antiproliferative assay, HT-29; format: cell-based, human; conditions: Homo sapiens, HT-29; SRB, 48 h, 1–100 µg·mL^−1; ND = not detected in the tested concentration range
Experimental: (§1) Anticancer activity was evaluated using the sulforhodamine B assay (SRB) on four different human colon cancer cell lines: HT-29, LS180, LoVo and LoVo/DX and green monkey kidney fibroblasts COS7 (ATCC, Manassas, VA, USA). Cell lines HT-29 and COS7 were cultured in α-MEM medium (IIET PAS, Wrocław, Poland), LS180 in OptiMEM medium (IIET PAS), LoVo and LoVo/DX in mixture of α-MEM and OptiMEM medium (1:1 (v:v)). Each culture medium was supplemented with 10% fetal bovine serum, 2 mM glutamine, 100 μg·mL^−1 penicillin, 100 μg·mL^−1 streptomycin and 0.25 μg·mL^−1 amphotericin (all supplements purchased from Gibco (Paisley, UK). Cells were incubated at 37 °C, 5% CO2 in HeraCELL 150i incubator (Thermo Fisher Scientific, Waltham, MA, USA).
(§2) For the SRB assay, cells were seeded onto 96-well plates (Sarstedt, Nümbrecht, Germany) at a density of 5·10^3/well and cultured overnight as described above. Then, the growth medium was gently removed and replaced with fresh medium, supplemented with aminochalcone derivatives in the concentration ranging from 1 µg·mL^−1 to 100 µg·mL^−1. All stock solutions were prepared in DMSO at a concentration of 10 mg·mL^−1. Cells were incubated for 48 h and then the SRB assay was performed as described previously. Each experiment was performed in quadruplicate. The final results were reported as the IC50 values calculated for three independent experiments. Cisplatin (Acros Organics, Waltham, MA, USA) and doxorubicin (Fisher BioReagents, Waltham, MA, USA) were used as positive controls of the test.

LS180 = experiment: SRB antiproliferative assay, LS180; format: cell-based, human; conditions: Homo sapiens, LS180, 48 h, 1–100 µg·mL^−1, ND = not detected in the tested concentration range
Experimental: as §1, §2

LoVo = experiment: SRB antiproliferative assay, LoVo; format: cell-based, human; conditions: Homo sapiens, LoVo, 48 h, 1–100 µg·mL^−1, ND = not detected in the tested concentration range
Experimental: as §1, §2

LoVo/DX = experiment: SRB antiproliferative assay, LoVo/DX; format: cell-based, human; conditions: Homo sapiens, LoVo/DX, 48 h, 1–100 µg·mL^−1, ND = not detected in the tested concentration range
Experimental: as §1, §2

[2] = SRB assay, normal fibroblasts COS7; format: cell-based, green monkey; conditions: green monkey, COS7 kidney fibroblasts (normal cell line), ND = not detected in the tested concentration range
Experimental: as §1, §2

[3] = tested on: Escherichia coli ATCC10536; experiment: Microbial growth curve screening, E. coli; format: cell-based; conditions: 0.1% (w/v), OD at 560 nm, control 1.61
Experimental: (§3) The antimicrobial screening tests were performed on two strains of bacteria: E. coli ATCC10536 and S. aureus DSM799, strain of yeast C. albicans DSM1386 and three strains of fungi: F. linii KB-F1, A. alternata CBS1526 and A. niger DSM1957. All microorganisms were obtained from the collection of the Faculty of Biotechnology and Food Microbiology, Wrocław University of Environmental and Life Sciences. The bacteria were cultured in nutrient broth (Biocorp, Warsaw, Poland), yeast and fungi in YM medium (3 g yeast extract, 3 g malt extract, 5 g bacteriological peptone and 10 g of glucose dissolved in 1 L of distilled water). The tests were carried out in 100-well microtiter plates. To each well 280 μL of culture medium, 10 μL of microorganism suspension and 10 μL of aminochalcone (1–18) dissolved in dimethyl sulfoxide (3% (w/v)) were added. The final concentration of the tested compound (1–18) was 0.1% (w/v). Each experiment were performed in 3 replications. The optical density of the cell suspension was measured on Bioscreen C (Automated Growth Curve Analysis System Lab System, Vantaa, Finland) at 560 nm automatically, at regular intervals of 30 min for 2–3 days. Cell cultures were maintained at 28 °C on a continuous shaker. To prepare the growth curves for each strain, the mean values of the absorbance in a function of time were used. The resulting antimicrobial activity was expressed as the increase of optical density (ΔOD) and was compared to that of the control cultures in the medium supplemented with dimethyl sulfoxide and also with reference substances: oxytetracycline (against bacteria), cycloheximide (against yeast) and nystatin (against fungi) (Sigma Aldrich).

[4] = tested on: Staphylococcus aureus DSM799; experiment: Microbial growth curve screening, S. aureus; format: cell-based; conditions: 0.1% (w/v); for ∆OD S. aureus: OD at 560 nm, control 1.67
Experimental: as §3

[5] = tested on: Alternaria alternata CBS1526; experiment: Microbial growth curve screening, A. alternata; format: cell-based; conditions: 0.1% (w/v); for ∆OD A. alternata: OD at 560 nm, control 1.86; for Lag-phase A. alternata: control 16.5 h
Experimental: as §3

Fusarium linii KB-F1 [6] = experiment: Microbial growth curve screening, F. linii; format: cell-based; conditions: 0.1% (w/v); for ∆OD F. linii: OD at 560 nm, control 1.95
Experimental: as §3

[7] = tested on: Aspergillus niger DSM1957; experiment: Microbial growth curve screening, A. niger; format: cell-based; conditions: 0.1% (w/v); for ∆OD A. niger: OD at 560 nm, control 2.14; for Lag-phase A. niger: control 11.0 h
Experimental: as §3

[8] = tested on: Escherichia coli ATCC10536; experiment: MIC evaluation (broth method), E. coli; format: cell-based; conditions: 48–72 h, read-out: Minimal inhibitory concentration E. coli
Experimental: (§4) Sterile 96-well microtiter plates (Sarstedt) with nutrient broth (for bacteria) (Biocorp) or YM medium (for yeast and filamentous fungi) were inoculated with a standardized cell suspension of bacteria and yeast or fungal spores of 10^5 cell·mL^−1, and supplemented with aminochalcones dissolved in DMSO. […] All analysis were conducted in triplicates. The plates were incubated at 30 °C (bacteria and yeast) or 25 °C (filamentous fungi) for 48–72 h. The results were measured with the Spark® Multimode Microplate Reader (Tecan, Männedorf, Switzerland) at a 560 nm wavelength. The minimal inhibitory concentration was defined as the lowest concentration of a tested compound that completely restricted the growth of the microorganism. In order to verify the obtained results, microbial cultures subjected to each concentration of aminochalcone were inoculated onto nutrient agar or YM plates and incubated as described above. The lack of growth on agar plate was a confirmation of the MIC of the tested compound. The resulting MIC values were compared with the reference substances: oxytetracycline (against bacteria), cycloheximide (against yeast) and nystatin (against fungi) (Sigma Aldrich).

Candida albicans DSM1386 [9] = experiment: MIC evaluation (broth method), C. albicans; format: cell-based; conditions: DSM1386, broth method, 48–72 h, read-out: Minimal inhibitory concentration C. albicans
Experimental: as §4

Fusarium linii KB-F1 [10] = experiment: MIC evaluation (broth method), F. linii; format: cell-based; conditions: for MIC: Fusarium, KBF1, 48–72 h, read-out: Minimal inhibitory concentration F. linii
Experimental: as §4

[11] = tested on: Staphylococcus aureus DSM799; experiment: MIC evaluation (broth method), S. aureus; format: cell-based; conditions: 48–72 h, read-out: Minimal inhibitory concentration S. aureus
Experimental: as §4

[12] = tested on: Aspergillus niger DSM1957; experiment: MIC evaluation (broth method), A. niger; format: cell-based
Experimental: as §4

Candida albicans DSM1386 [13] = experiment: Microbial growth curve screening, C. albicans; format: cell-based; conditions: 0.1% (w/v)
Experimental: as §3

[14] = tested on: Alternaria alternata CBS1526; experiment: MIC evaluation (broth method), A. alternata; format: cell-based; conditions: 48–72 h
Experimental: as §4

Row | SMILES | MIC80 Trichophyton rubrum (literature) (Trichophyton rubrum) | IC50 [1] | IC50 (HT-29) | IC50 (LS180) | IC50 (LoVo) | IC50 (LoVo/DX) | IC50 at 48 h [2] | ∆OD E. coli [3] | ∆OD S. aureus [4] | ∆OD A. alternata [5] | Lag-phase A. alternata [5] | ∆OD F. linii (Fusarium linii KB-F1 [6]) | ∆OD A. niger [7] | Lag-phase A. niger [7] | MIC [8] | MIC (Fusarium linii KB-F1 [10]) | melting point | other results
1 | Nc1ccccc1C(=O)/C=C/c1cccc([N+](=O)[O-])c1 [2′-amino-3-nitro-chalcone] | 0.5 mg/L (≈ 1.86 µM) | – | – | – | – | – | – | – | – | – | – | – | – | – | – | – | – | –
2 | Cc1ccc(/C=C/C(=O)c2ccccc2N)cc1 [2′-amino-4-methylchalcone] | – | 38.2 µM | – | – | – | – | – | – | – | – | – | – | – | – | – | – | – | –
3 | Nc1ccc(C(=O)/C=C/c2ccc(Cl)cc2)cc1 [4′-amino-4-chlorochalcone] | – | 31.4 µM | – | – | – | – | – | – | – | – | – | – | – | – | – | – | – | –
4 | Nc1ccc(C(=O)/C=C/c2ccc(F)cc2)cc1 [4′-amino-4-fluorochalcone] | – | 34.4 µM | – | – | – | – | – | – | – | – | – | – | – | – | – | – | – | –
5 | Nc1ccccc1C(=O)/C=C/c1ccc([N+](=O)[O-])cc1 [Compound 10, 2′-Amino-4-nitrochalcone] | 0.5 mg/L (≈ 1.86 µM) | – | 3.24 ± 0.27 mg/L (≈ 12.1 µM) | 2 ± 0.35 mg/L (≈ 7.46 µM) | 1.11 ± 0.07 mg/L (≈ 4.14 µM) | 0.96 ± 0.12 mg/L (≈ 3.58 µM) | 1.79 ± 0.14 mg/L (≈ 6.67 µM) | 0.0 | 0.15 | 0.20 | 0.5 h | 0.0 | 0.79 | 23.0 h | 0.25 mg/L (≈ 0.932 µM) | 0.5 mg/L (≈ 1.86 µM) | 114 to 117 °C | Lag-phase S. aureus ([4]; control 2.5 h): 11.5 h; MIC (Candida albicans DSM1386 [9]): 0.5 mg/L (≈ 1.86 µM)
6 | Nc1cccc(C(=O)/C=C/c2ccc([N+](=O)[O-])cc2)c1 [Compound 11, 3′-Amino-4-nitrochalcone] | – | – | 2.77 ± 0.49 mg/L (≈ 10.3 µM) | 2.89 ± 0.53 mg/L (≈ 10.8 µM) | 1.34 ± 0.1 mg/L (≈ 4.99 µM) | 1.36 ± 0.06 mg/L (≈ 5.07 µM) | 2.3 ± 0.45 mg/L (≈ 8.57 µM) | 0.0 | 0.0 | 0.55 | 42.0 h | 0.0 | 0.83 | 39.5 h | 1000 mg/L (≈ 3730 µM) | 0.5 mg/L (≈ 1.86 µM) | 166 to 168 °C | MIC [11]: 0.25 mg/L (≈ 0.932 µM); MIC (Candida albicans DSM1386 [9]): 0.25 mg/L (≈ 0.932 µM); MIC ([12]; Aspergillus niger, DSM1957, 48–72 h, read-out: Minimal inhibitory concentration A. niger): 1 mg/L (≈ 3.73 µM)
7 | Nc1ccc(C(=O)/C=C/c2ccc([N+](=O)[O-])cc2)cc1 [Compound 12, 4′-Amino-4-nitrochalcone] | – | – | 3.42 ± 0.54 mg/L (≈ 12.7 µM) | 4.64 ± 0.54 mg/L (≈ 17.3 µM) | 1.8 ± 0.1 mg/L (≈ 6.71 µM) | 2 ± 0.12 mg/L (≈ 7.46 µM) | 3.1 ± 0.5 mg/L (≈ 11.6 µM) | 0.0 | 0.0 | 0.87 | 13.0 h | 0.0 | – | – | 0.25 mg/L (≈ 0.932 µM) | 1 mg/L (≈ 3.73 µM) | 205 to 207 °C | ∆OD C. albicans (Candida albicans DSM1386 [13]; OD at 560 nm, control 1.58): 0.13; Lag-phase C. albicans (Candida albicans DSM1386 [13]; control 3.0 h): 12.0 h; MIC [11]: 0.25 mg/L (≈ 0.932 µM)
8 | C[C@@H]1[C@H](O)[C@@H](C)/C=C/C=C/CC/C=C/C=C/C=C/C=C/C(O[C@H]2O[C@H](C)[C@@H](O)[C@H](N)[C@@H]2O)CC2O[C@](O)(CC(O)C(O)CCC(O)CC(O)CC(O)CC(=O)O[C@H]1C)CC(O)C2C(=O)O (some centres unmarked) [Nystatin, reference compound] | – | – | – | – | – | – | – | – | – | 0.0 | – | 0.13 | 0.74 | 4.5 h | – | – | – | Lag-phase F. linii (Fusarium linii KB-F1 [6]; control 13.5 h): 10.0 h; Minimal inhibitory concentration A. alternata [14]: 1000 mg/L (≈ 1080 µM); Minimal inhibitory concentration F. linii (Fusarium linii KB-F1 [10]; 48–72 h): 500 mg/L (≈ 540 µM); Minimal inhibitory concentration A. niger ([12]; 48–72 h): 250 mg/L (≈ 270 µM)
9 | OC(Cn1cncn1)(Cn1cncn1)c1ccc(F)cc1F [fluconazole] | 0.25 mg/L (≈ 0.816 µM) | – | – | – | – | – | – | – | – | – | – | – | – | – | – | – | – | –
